From ChEMBL document CHEMBL1134082, “Effect of zinc ion on the inhibition of carboxypeptidase A by imidazole-bearing substrate analogues” (Bioorg Med Chem Lett, 2001)

What was measured:
[1] = target: T1, Carboxypeptidase A1 (Bos taurus) (UniProt P00730); assay: Cooperative effect of the inhibitory zinc ion in the inhibition of CPA by the compound
T1 sequence (whole entry): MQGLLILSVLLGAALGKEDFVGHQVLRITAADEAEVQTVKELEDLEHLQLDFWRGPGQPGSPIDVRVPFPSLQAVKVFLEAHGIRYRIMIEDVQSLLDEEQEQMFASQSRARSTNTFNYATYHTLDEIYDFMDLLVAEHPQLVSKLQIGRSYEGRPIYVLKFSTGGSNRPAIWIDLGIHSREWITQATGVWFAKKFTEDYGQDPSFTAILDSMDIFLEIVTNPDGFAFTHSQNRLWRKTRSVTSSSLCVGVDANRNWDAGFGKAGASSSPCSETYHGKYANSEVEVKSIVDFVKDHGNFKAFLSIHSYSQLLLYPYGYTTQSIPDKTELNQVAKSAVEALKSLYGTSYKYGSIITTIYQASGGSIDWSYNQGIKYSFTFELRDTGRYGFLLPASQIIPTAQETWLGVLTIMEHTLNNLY

[2] = Extent of enhancement of inhibitory potency of compound against carboxypeptidase A caused by zinc ion.
[3] = target: T1, Carboxypeptidase A1 (Bos taurus); assay: Apparent inhibitory constant of carboxypeptidase A (CPA) in presence of Zinc ion
[4] = target: T2, Carboxypeptidase A1 (Bos taurus, UniProt P00730); assay: Inhibitory constant of carboxypeptidase A (CPA) in absence of Zinc ion.
T2 sequence (P00730 whole entry): T1 sequence (whole entry)

Row | SMILES | Cooperative effect [1] | Ki/K'i [2] | K'i [3] [µM] | Ki [4] [µM]
1 | O=C(O)C(Cc1ccccc1)c1c[nH]cn1 (stereo unspecified) | 1.88 | 0.53 | 0.49 | 
2 | O=C(O)C(Cc1ccccc1)c1cnc[nH]1 (stereo unspecified) |  |  |  | 0.26
3 | O=C(O)C(CCCc1cnc[nH]1)Cc1ccccc1 (stereo unspecified) |  |  |  | 750
4 | O=C(O)C(Cc1ccccc1)Cc1c[nH]cn1 (stereo unspecified) | 0.0047 | 212 | 1.01 | 214
5 | O=C(O)C(CCc1c[nH]cn1)Cc1ccccc1 (stereo unspecified) | 0.0056 | 51.7 | 0.29 | 15
6 | O=C(O)C(CCCc1c[nH]cn1)Cc1ccccc1 (stereo unspecified) | 0.024 | 41.7 | 18 | 
